From patent US8791143B2, “Anthranilic diamide derivatives having cyclic side-chains” (priority 2010, dated 2014)
Where two headings read alike, the source gives them in different places. Blank lines part the entries; values can stand above or below the compound they belong to.

Tests used:
[1] = log P by HPLC on reversed-phase columns (EEC Directive 79/831 Annex V.A8); format: physicochemical; details: for log P (second value after the slash): pH 2.7
[2] = tested on: caterpillars of the armyworm (Spodoptera frugiperda); assay: Spodoptera frugiperda test (SPODFR spray treatment); format: in vivo; details: Spodoptera frugiperda, 168 h; for pest or weed control at 100 g/ha / pest or weed control at 500 g/ha: read-out: activity in % (caterpillars killed); for pest or weed control at 500 g/ha: application rate 500 g/ha
Boophilus microplus = Boophilus microplus test (BOOPMI injection); format: in vivo; details: Rhipicephalus microplus, 168 h; 20 μg/animal, injection into the abdomen, after 7 days; read-out: activity in % (no fertile eggs laid)
Protocol: (§1) Solvent: dimethyl sulphoxide
The active compound solution is injected into the abdomen (Boophilus microplus), and the animals are transferred into dishes and stored in a climate-controlled room.
The activity is assessed by […] of fertile eggs. 100% means that none of the ticks has laid any fertile eggs.

Lucilia cuprina larvae = assay: Lucilia cuprina test (LUCICU); format: in vivo; details: 1152 h, read-out: activity (kill in %)
Protocol: as §1
Vessels containing horse meat treated with the active ingredient preparation of the desired concentration are populated with about 20 Lucilia cuprina larvae.
(§2) After 48 days, the kill in % is determined.

[3] = tested on: larvae of the mustard beetle (Phaedon cochleariae); assay: Phaedon test (PHAECO spray treatment); details: Phaedon cochleariae, 168 h, read-out: activity in % (beetle larvae killed)
[4] = tested on: green peach aphid (Myzus persicae); assay: Myzus test (MYZUPE spray treatment); format: in vivo; details: Myzus persicae, 144 h; for pest or weed control at 100 g/ha / pest or weed control at 500 g/ha: read-out: activity in % (aphids killed)
adult Musca domestica = assay: Musca domestica test (MUSCDO); format: in vivo; details: 1152 h, read-out: activity (kill in %)
Protocol: as §1
Vessels containing a sponge treated with the active compound preparation of the desired concentration are populated with adult Musca domestica.
as §2

[5] = reversed-phase C18 HPLC column, pH 2.7, HPLC reversed-phase C18, acidic range pH 2.7 (HCOOH), only or first value of the cell, read-out: log P
[6] = application rate 100 g/ha, after 6 days
[7] = application rate 100 g/ha, after 7 days
[8] = application rate 500 g/ha, after 6 days

Structure (SMILES): Cc1cc(Cl)cc(C(=O)NC2COC2)c1NC(=O)c1cc(Cn2cc(Br)c(C(F)(F)F)n2)nn1-c1ncccc1Cl [Example 24]
chromatographic logP ([1]; pH 2.7, log P): 3.2 | pest or weed control at 100 g/ha [2]: 100% | pest or weed control at 0.02 mg (Boophilus microplus): 100% | pest or weed control at 100 ppm (Lucilia cuprina larvae): 100% | pest or weed control at 100 g/ha [3]: 100%

Structure (SMILES): Cc1cc(C#N)cc(C(=O)NC2COC2)c1NC(=O)c1cc(Cn2nnc(C(F)(F)F)n2)nn1-c1ccccc1Cl [Example 26]
chromatographic logP [1, 5]: 2.85 | pest or weed control at 100 g/ha [4, 6]: 100% | pest or weed control at 100 g/ha [2, 7]: 100% | pest or weed control at 0.02 mg (Boophilus microplus): 100% | pest or weed control at 100 ppm (Lucilia cuprina larvae; 100 ppm, after 48 days): 100% | pest or weed control at 100 ppm (adult Musca domestica; 100 ppm, after 48 days): 80% | pest or weed control at 100 g/ha [3]: 100%

Structure (SMILES): Cc1cc(C#N)cc(C(=O)NC2COC2)c1NC(=O)c1cc(Cn2nnc(C(F)(F)F)n2)nn1-c1c(F)cccc1F [Example 27]
chromatographic logP [1, 5]: 2.79 | pest or weed control at 100 g/ha [4, 6]: 80% | pest or weed control at 100 g/ha [2, 7]: 100% | pest or weed control at 0.02 mg (Boophilus microplus): 100% | pest or weed control at 100 ppm (Lucilia cuprina larvae; 100 ppm, after 48 days): 100% | pest or weed control at 20 ppm (adult Musca domestica; after 48 days): 100% | pest or weed control at 100 g/ha [3]: 100%

Structure (SMILES): Cc1cc(C#N)cc(C(=O)NC2CCN(Cc3ccccc3)C2)c1NC(=O)c1cc(Cn2nnc(C(F)(F)F)n2)nn1-c1ncccc1Cl (stereo not shown) [Example 30]
chromatographic logP [1, 5]: 1.9 | pest or weed control at 500 g/ha [4, 8]: 100% | pest or weed control at 500 g/ha ([2]; after 7 days): 100% | pest or weed control at 0.02 mg (Boophilus microplus): 100% | pest or weed control at 100 ppm (Lucilia cuprina larvae; 100 ppm, after 48 days): 100% | pest or weed control at 20 ppm (adult Musca domestica; after 48 days): 80% | pest or weed control at 500 g/ha [3]: 100%

Structure (SMILES): Cc1cc(Cl)cc(C(=O)NC2CCN(Cc3ccccc3)C2)c1NC(=O)c1cc(Cn2nnc(C(F)(F)F)n2)nn1-c1ncccc1Cl (stereo not shown) [Example 31]
chromatographic logP [1, 5]: 2.03 | pest or weed control at 500 g/ha [4, 8]: 100% | pest or weed control at 500 g/ha ([2]; after 7 days): 100% | pest or weed control at 0.02 mg (Boophilus microplus): 100% | pest or weed control at 100 ppm (Lucilia cuprina larvae; 100 ppm, after 48 days): 100% | pest or weed control at 500 g/ha [3]: 100%

Structure (SMILES): Cc1cc(Cl)cc(C(=O)N[C@@H]2CCOC2=O)c1NC(=O)c1cc(Cn2nnc(C(F)(F)F)n2)nn1-c1ncccc1Cl [Example 42]
log P (second value after the slash) [1]: 2.53 | chromatographic logP ([1]; pH 2.7, log P): 2.84 | pest or weed control at 100 g/ha [4]: 100% | pest or weed control at 100 g/ha [2]: 100% | pest or weed control at 0.02 mg (Boophilus microplus): 100% | pest or weed control at 100 ppm (Lucilia cuprina larvae): 100% | pest or weed control at 100 ppm (adult Musca domestica): 90% | pest or weed control at 100 g/ha [3]: 100%

Structure (SMILES): Cc1cc(Cl)cc(C(=O)N[C@@H]2CCOC2=O)c1NC(=O)c1cc(Cn2nnc(C(F)(F)C(F)(F)F)n2)nn1-c1ncccc1Cl [Example 43]
log P (second value after the slash) [1]: 2.92 | chromatographic logP ([1]; pH 2.7, log P): 3.21 | pest or weed control at 500 g/ha [4]: 100% | pest or weed control at 100 g/ha [2]: 100% | pest or weed control at 0.02 mg (Boophilus microplus): 100% | pest or weed control at 100 ppm (Lucilia cuprina larvae): 100% | pest or weed control at 100 g/ha [3]: 100%

Structure (SMILES): Cc1cc(C#N)cc(C(=O)NC2(c3cccc(C(F)(F)F)c3)CC2)c1NC(=O)c1cc(Cn2nnc(C(F)(F)F)n2)nn1-c1ncccc1Cl [Example 65]
chromatographic logP [1, 5]: 3.97 | pest or weed control at 100 g/ha [4, 6]: 90% | pest or weed control at 100 g/ha [2, 7]: 100% | pest or weed control at 0.02 mg (Boophilus microplus): 100% | pest or weed control at 100 ppm (Lucilia cuprina larvae; 100 ppm, after 48 days): 100% | pest or weed control at 20 ppm (adult Musca domestica; after 48 days): 80% | pest or weed control at 100 g/ha [3]: 100%

Structure (SMILES): Cc1cc(C#N)cc(C(=O)NCc2ccc(S(F)(F)(F)(F)F)cc2)c1NC(=O)c1cc(Cn2nnnc2C(F)(F)F)nn1-c1ncccc1Cl [Example 69]
chromatographic logP [1, 5]: 3.68 | pest or weed control at 100 g/ha [2, 7]: 100% | pest or weed control at 0.02 mg (Boophilus microplus): 100% | pest or weed control at 100 ppm (Lucilia cuprina larvae; 100 ppm, after 48 days): 100% | pest or weed control at 20 ppm (adult Musca domestica; after 48 days): 80% | pest or weed control at 100 g/ha [3]: 100%

Continued, in another order:

chromatographic logP [1, 5]: 2.3
Structure (SMILES): Cc1cc(Cl)cc(C(=O)NC2CCN(Cc3ccccc3)C2)c1NC(=O)c1cc(Cn2nnc(C(F)(F)C(F)(F)F)n2)nn1-c1ncccc1Cl (stereo not shown) [Example 33]
pest or weed control at 500 g/ha ([2]; after 7 days): 100% | pest or weed control at 0.02 mg (Boophilus microplus): 100% | pest or weed control at 100 ppm (Lucilia cuprina larvae; 100 ppm, after 48 days): 100% | pest or weed control at 500 g/ha [3]: 100%

chromatographic logP [1, 5]: 2.82
Structure (SMILES): Cc1cc(C#N)cc(C(=O)NC2CCS(=O)(=O)C2)c1NC(=O)c1cc(Cn2nnc(C(F)(F)F)n2)nn1-c1ccccc1Cl (stereo not shown) [Example 36]
inhibition at 100 g/ha ([4]; 100 g/ha, 6 d, comparison with prior art): 100% | pest or weed control at 100 g/ha [4, 6]: 100% | inhibition at 100 g/ha ([2]; 100 g/ha, 7 d, comparison with prior art): 100% | pest or weed control at 100 g/ha [2, 7]: 100% | pest or weed control at 0.02 mg (Boophilus microplus): 100% | pest or weed control at 100 ppm (Lucilia cuprina larvae; 100 ppm, after 48 days): 100% | pest or weed control at 100 ppm (adult Musca domestica; 100 ppm, after 48 days): 80% | pest or weed control at 100 g/ha [3]: 100%

chromatographic logP [1, 5]: 3.13
Structure (SMILES): Cc1cc(Cl)cc(C(=O)NC2CCS(=O)(=O)C2)c1NC(=O)c1cc(Cn2nnc(C(F)(F)C(F)(F)F)n2)nn1-c1ncccc1Cl (stereo not shown) [Example 37]
pest or weed control at 500 g/ha [4, 8]: 100% | pest or weed control at 500 g/ha ([2]; after 7 days): 100% | pest or weed control at 0.02 mg (Boophilus microplus): 100% | pest or weed control at 100 ppm (Lucilia cuprina larvae; 100 ppm, after 48 days): 100% | pest or weed control at 100 ppm (adult Musca domestica; 100 ppm, after 48 days): 80% | pest or weed control at 500 g/ha [3]: 100%

chromatographic logP [1, 5]: 2.82
Structure (SMILES): Cc1cc(C#N)cc(C(=O)NC2CCS(=O)(=O)C2)c1NC(=O)c1cc(Cn2nnc(C(F)(F)C(F)(F)F)n2)nn1-c1ncccc1Cl (stereo not shown) [Example 38]
pest or weed control at 500 g/ha [4, 8]: 100% | pest or weed control at 500 g/ha ([2]; after 7 days): 100% | pest or weed control at 0.02 mg (Boophilus microplus): 100% | pest or weed control at 100 ppm (Lucilia cuprina larvae; 100 ppm, after 48 days): 100% | pest or weed control at 100 ppm (adult Musca domestica; 100 ppm, after 48 days): 100% | pest or weed control at 500 g/ha [3]: 100%

chromatographic logP [1, 5]: 3.25
Structure (SMILES): Cc1cc(C#N)cc(C(=O)NC2CCSC2=O)c1NC(=O)c1cc(Cn2nnc(C(F)(F)C(F)(F)F)n2)nn1-c1ncccc1Cl (stereo not shown) [Example 40]
pest or weed control at 500 g/ha ([2]; after 7 days): 100% | pest or weed control at 0.02 mg (Boophilus microplus): 100% | pest or weed control at 100 ppm (Lucilia cuprina larvae; 100 ppm, after 48 days): 100% | pest or weed control at 500 g/ha [3]: 100%

chromatographic logP [1, 5]: 2.9
Structure (SMILES): Cc1cc(C#N)cc(C(=O)N[C@@H]2CCOC2=O)c1NC(=O)c1cc(Cn2nnc(C(F)(F)C(F)(F)F)n2)nn1-c1ncccc1Cl [Example 44]
pest or weed control at 100 g/ha [4, 6]: 90% | pest or weed control at 100 g/ha [2, 7]: 100% | pest or weed control at 0.02 mg (Boophilus microplus): 100% | pest or weed control at 100 ppm (Lucilia cuprina larvae; 100 ppm, after 48 days): 100% | pest or weed control at 100 ppm (adult Musca domestica; 100 ppm, after 48 days): 100% | pest or weed control at 100 g/ha [3]: 100%
